Reference: patent publication US8921417B2, “Method of treating dyslipidemia using naturally occurring diterpene” (Council of Scientific & Industrial Research, priority 2008, dated 2014)
Marks after values point to notes of the source that are not given here.

Test system: high fat diet (HFD)-fed dyslipidemic hamsters
Assay: Antidyslipidemic activity in high fat diet (HFD)-fed dyslipidemic hamster model
Assay type: in vivo, golden Syrian hamsters
Conditions: for antidyslipidemic activity (in words): different doses (5, 10, 25, 50, 100 mg/kg) of body weight; for GLY, percent change with respect to HFD-fed hamster group / HDL/TC, percent change with respect to HFD-fed hamster group / TC, percent change with respect to HFD-fed hamster group / TG, percent change with respect to HFD-fed hamster group / LDL, percent change with respect to HFD-fed hamster group: plasma
Excerpt: Male golden Syrian hamsters weighing 110-120 g were divided into hyperlipidemic and hyperlipidemic plus drug-treated groups. Each group consisted of eight animals. Hyperlipidemia was produced by feeding with a high fat diet (HFD). Hyperlipidemic hamsters had free access to the HFD and water ad lib during the entire period of the experiment. The test samples were given orally at the dose mentioned using water as a drug vehicle from day 4 to day 10 (7 days) in the HFD fed hamsters.
Normal hamsters fed with the HFD and given the drug vehicle (water) only served as control animals. Body weight and diet intake of each animal group was recorded daily to check the effect of the drug on food intake and body weight of the animals. At the end of the experiment, i.e., on the 10th day, the blood of the non-fasted animals was withdrawn in EDTA coated tubes and the tubes were cooled to 4° C. for 15 min. The cold plasma was separated and biological analysis of the plasma was performed on the same day using commercially available enzymatic diagnostic kits for triglycerides (TG), total cholesterol (TC), high density lipoprotein (HDL), glycerol (GLY) and low density lipoprotein (LDL) using a Synchron CX-5 Clinical System, Beckmann Coulter Instrument. The data was analyzed for its significance on Prism Software.

[1] = dose 25 mg/kg body weight, oral, 7 days
[2] = dose 50 mg/kg body weight, oral, 7 days
[3] = dose 100 mg/kg body weight, oral, 7 days

CC1=CCC[C@@H]2[C@@](C)(CCC3=CC(=O)O[C@@H]3O)[C@H](C)CC[C@@]12C [Compound 1, 16α-hydroxycleroda-3,13(14)Z-dien-15,16-olide] was tested, and the “antidyslipidemic activity (in words)” value (listed as compound having formula (1)) was “significant antidyslipidemic activity”, the “antidyslipidemic activity (in words)” value (listed as pure isolated compound from the hexane extract) was “significantly decreased serum TG, total cholesterol (TC), and glycerol (Gly), accompanied by increase in HDL-C/TC ratio” and the “GLY, percent change with respect to HFD-fed hamster group” value (“GLY, percent change” for short) (dose 5 mg/kg p.o., 7 days) was −10%. The “HDL/TC, percent change with respect to HFD-fed hamster group” value (“HDL/TC, percent change” below) (dose 5 mg/kg p.o., 7 days) was “+12%”, the “TC, percent change with respect to HFD-fed hamster group” value (dose 5 mg/kg p.o., 7 days) was −27* % and the “TG, percent change with respect to HFD-fed hamster group” value (from here on “TG, percent change”) (dose 5 mg/kg p.o., 7 days) was −19%. The “GLY, percent change” value (dose 10 mg/kg p.o., 7 days) was −5%, the “HDL/TC, percent change” value (dose 10 mg/kg p.o., 7 days) was “+12%” and the “TC, percent change with respect to HFD-fed hamster group” value (dose 10 mg/kg p.o., 7 days) was −23* %. For the same compound, the “TG, percent change” value (dose 10 mg/kg p.o., 7 days) was −26*** %, the “increase of HDL/TC” value [1] was 36% and the “lowering of Low density lipoproteins (LDL)” value (shortened to “lowering … (LDL)”) [1] was 49%. For the same compound, the “lowering of glycerol (Gly)” value [1] was 51%, the “lowering of total cholesterol (TC)” value [1] was 46% and the “lowering of serum TG” value (dose 25 mg/kg body weight, oral, 7 days, listed as compound of formula (1), 25 mg/kg) was 51%. For the same compound, the “lowering of serum TG” value (dose 25 mg/kg body weight, oral, 7 days, listed as the compound, 25 mg/kg) was “up to 51%”, the “GLY, percent change” value (dose 25 mg/kg p.o., 7 days) was −51*** % and the “HDL/TC, percent change” value (dose 25 mg/kg p.o., 7 days) was “+36%”. The “LDL, percent change with respect to HFD-fed hamster group” value (from here on “LDL, percent change”) (dose 25 mg/kg p.o., 7 days) was −49* %, the “TC, percent change with respect to HFD-fed hamster group” value (dose 25 mg/kg p.o., 7 days) was −46** % and the “TG, percent change” value (dose 25 mg/kg p.o., 7 days) was −51*** %. The “increase of HDL/TC” value [2] was 54%, the “lowering … (LDL)” value [2] was 41% and the “lowering of glycerol (Gly)” value [2] was 48%. The “lowering of serum TG” value [2] was 46%, the “lowering of total cholesterol (TC)” value [2] was 55% and the “GLY, percent change” value (dose 50 mg/kg p.o., 7 days) was −48** %. The “HDL/TC, percent change” value (dose 50 mg/kg p.o., 7 days) was “+54%”, the “LDL, percent change” value (dose 50 mg/kg p.o., 7 days) was −41* % and the “TC, percent change with respect to HFD-fed hamster group” value (dose 50 mg/kg p.o., 7 days) was −55*** %. For the same compound, the “TG, percent change” value (dose 50 mg/kg p.o., 7 days) was −46** %, the “increase of HDL/TC” value [3] was 46% and the “lowering … (LDL)” value [3] was 65%. For the same compound, the “lowering of glycerol (Gly)” value [3] was 43%, the “lowering of serum TG” value [3] was 43% and the “lowering of total cholesterol (TC)” value [3] was 54%. For the same compound, the “GLY, percent change” value (dose 100 mg/kg p.o., 7 days) was −43*** %, the “HDL/TC, percent change” value (dose 100 mg/kg p.o., 7 days) was “+46%” and the “LDL, percent change” value (dose 100 mg/kg p.o., 7 days) was −65*** %. The “TC, percent change with respect to HFD-fed hamster group” value (dose 100 mg/kg p.o., 7 days) was −54*** %, the “TG, percent change” value (dose 100 mg/kg p.o., 7 days) was −43** % and the “increase of HDL/TC ratio” value (over the dose range 5 to 100 mg/kg body weight) was “up to 54%”. For the same compound, the “reduction of total cholesterol (TC)” value (over the dose range 5 to 100 mg/kg, listed as compound of formula (1)) was “up to 55%”.
In the case of CC(C)c1c(C(=O)Nc2ccccc2)c(-c2ccccc2)c(-c2ccc(F)cc2)n1CC[C@@H](O)C[C@@H](O)CC(=O)O [Atorvastatin, reference compound], the “increase of HDL/TC” value (dose 10 mg/kg) is reported as 35%, the “lowering of Gly” value (dose 10 mg/kg) is reported as 52% and the “lowering of TC” value (dose 10 mg/kg) is reported as 14%. For the same compound, the “lowering of TG” value (dose 10 mg/kg) was 63%, the “GLY, percent change” value (dose 10 mg/kg p.o., 7 days) was −52* % and the “HDL/TC, percent change” value (dose 10 mg/kg p.o., 7 days) was “+35%”. For the same compound, the “TC, percent change with respect to HFD-fed hamster group” value (dose 10 mg/kg p.o., 7 days) was −14% and the “TG, percent change” value (dose 10 mg/kg p.o., 7 days) was −63*** %.
With CC(C)OC(=O)C(C)(C)Oc1ccc(C(=O)c2ccc(Cl)cc2)cc1 [fenofibrate, reference compound] the “increase of HDL-C/TC” value (dose 108 mg/kg body weight) was 10%, the “lowering of Gly” value (dose 108 mg/kg body weight) was 36% and the “lowering of TC” value (dose 108 mg/kg body weight) was 18%. For the same compound, the “lowering of TG” value (dose 108 mg/kg body weight) was 42%.
In the case of CC[C@H](C)C(=O)O[C@H]1C[C@@H](C)C=C2C=C[C@H](C)[C@H](CC[C@@H]3C[C@@H](O)CC(=O)O3)[C@H]21 [Lovastatin, reference compound], the “increase of HDL/TC” value [1] is reported as 12%, the “lowering of glycerol (Gly)” value [1] is reported as 35% and the “lowering of serum TG” value [1] is reported as 29%. For the same compound, the “lowering of total cholesterol (TC)” value [1] was 9%, the “GLY, percent change” value (dose 25 mg/kg p.o., 7 days) was −35% and the “HDL/TC, percent change” value (dose 25 mg/kg p.o., 7 days) was “+12%”. The “TC, percent change with respect to HFD-fed hamster group” value (dose 25 mg/kg p.o., 7 days) was −9% and the “TG, percent change” value (dose 25 mg/kg p.o., 7 days) was −29%.
